Measurements reported in the supplement of paper PMC10307832.

Columns and labels:
Test in all cases: relative viability (nuclei count vs DMSO), 5 days (fraction); higher = more cells survive
[1] = compound: C[C@@H](C(=O)N[C@@H](C1CCCCC1)C(=O)N2CCC[C@H]2C(=O)N[C@@H]3[C@@H](CC4=CC=CC=C34)OCC#CC#CCO[C@@H]5CC6=CC=CC=C6[C@@H]5NC(=O)[C@@H]7CCCN7C(=O)[C@H](C8CCCCC8)NC(=O)[C@H](C)NC)NC [AZD5582] + N=C(N)NC(=N)NCCc1ccccc1 [Phenformin] (partner 250 µM)
In short: (§1)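 Each reported value is a median over duplicate plates. It expresses relative viability: treated-well nuclei count divided by vehicle-well nuclei count. Lung cancer cell lines in 1536-well plates were dosed by pin tool a day after seeding, alone with one drug or with a fixed anchor-drug dose plus five library-drug doses (not always all listed) in √10 steps, and nuclei were counted after 5 days.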

[2] = compound: Cn1nnc2c(C(N)=O)ncn2c1=O [Temozolomide] + CS(=O)(=O)N1CCN(Cc2cc3nc(-c4cccc5[nH]ncc45)nc(N4CCOCC4)c3s2)CC1 [Pictilisib] (partner 1 µM)
In short: as §1

[3] = compound: Cn1nnc2c(C(N)=O)ncn2c1=O [Temozolomide] + O=C(CCCCCCC(=O)Nc1ccccc1)NO [Vorinostat] (partner 1 µM)
In short: as §1

[4] = compound: Cn1nnc2c(C(N)=O)ncn2c1=O [Temozolomide] + CC(=O)Nc1cccc(-n2c(=O)n(C3CC3)c(=O)c3c(Nc4ccc(I)cc4F)n(C)c(=O)c(C)c32)c1 [Trametinib] (partner 0.02 µM)
In short: as §1

| Cell Line | relative viability ([1]; first compound 0.001581 µM) | relative viability ([1]; first compound 0.005 µM) | relative viability ([1]; first compound 0.01581 µM) | relative viability ([1]; first compound 0.05 µM) | relative viability ([2]; first compound 0.2 µM) | relative viability ([2]; first compound 0.6325 µM) | relative viability ([2]; first compound 2 µM) | relative viability ([2]; first compound 6.325 µM) | relative viability ([2]; first compound 20 µM) | relative viability ([3]; first compound 0.2 µM) | relative viability ([3]; first compound 0.6325 µM) | relative viability ([3]; first compound 2 µM) | relative viability ([3]; first compound 6.325 µM) | relative viability ([3]; first compound 20 µM) | relative viability ([4]; first compound 0.2 µM) | relative viability ([4]; first compound 0.6325 µM) | relative viability ([4]; first compound 2 µM) | relative viability ([4]; first compound 6.325 µM) | relative viability ([4]; first compound 20 µM) |
| --- | --- | --- | --- | --- | --- | --- | --- | --- | --- | --- | --- | --- | --- | --- | --- | --- | --- | --- | --- |
| NCI-H358 | 0.366 | 0.374 | 0.399 | 0.313 | 0.342 | 0.392 | 0.348 | 0.305 | 0.283 | 0.558 | 0.656 | 0.6 | 0.647 | 0.553 | 0.108 | 0.143 | 0.131 | 0.139 | 0.145 |
| HCC-827 | 0.391 | 0.383 | 0.368 | 0.387 | 0.82 | 0.958 | 1.06 | 1.05 | 0.313 | 0.637 | 0.785 | 0.817 | 0.876 | 0.169 | 0.56 | 0.593 | 0.286 | 0.532 | 0.136 |
| NCI-H1355 | 0.416 | 0.426 | 0.381 | 0.387 | 0.433 | 0.46 | 0.427 | 0.38 | 0.39 | 0.6 | 0.638 | 0.638 | 0.624 | 0.583 | 0.436 | 0.464 | 0.483 | 0.452 | 0.403 |
| NCI-H1793 | 0.295 | 0.404 | 0.306 | 0.264 | – | 0.294 | 0.286 | 0.292 | 0.309 | – | 0.847 | 0.758 | 0.692 | 0.503 | – | 0.463 | 0.465 | 0.335 | 0.414 |
| CAL-12T | 0.354 | 0.27 | 0.408 | 0.222 | – | 0.434 | 0.425 | 0.334 | 0.391 | 0.889 | 0.881 | 0.885 | 0.781 | 0.628 | 0.285 | 0.369 | 0.337 | 0.418 | 0.268 |
| NCI-H1993 | 0.535 | 0.464 | 0.483 | 0.532 | 0.853 | 0.819 | 0.871 | 0.826 | 0.834 | 0.546 | 0.829 | 1.07 | 0.798 | 0.507 | 0.429 | 0.61 | 0.473 | 0.455 | 0.552 |
| EKVX | 0.217 | 0.23 | 0.196 | 0.228 | 0.23 | 0.38 | 0.391 | 0.379 | 0.273 | – | 0.745 | 0.691 | 0.794 | 0.395 | – | 0.318 | 0.286 | 0.338 | 0.247 |
| NCI-H1755 | 0.578 | 0.666 | 0.502 | 0.576 | 0.507 | 0.447 | 0.462 | 0.413 | 0.379 | 0.863 | 0.763 | 0.604 | 0.627 | 0.638 | 0.81 | 0.761 | 0.718 | 0.664 | 0.549 |
| NCI-H2228 | 0.335 | 0.296 | 0.321 | 0.0886 | 0.354 | 0.36 | 0.227 | 0.234 | 0.47 | 0.978 | 0.443 | 0.695 | 0.175 | 0.486 | 0.286 | 0.617 | 0.432 | 0.459 | 0.537 |
| NCI-H460 | 0.485 | 0.524 | 0.487 | 0.611 | 0.326 | 0.318 | 0.472 | 0.272 | 0.309 | 0.67 | 0.694 | 0.706 | 0.709 | 0.685 | 0.136 | 0.236 | 0.158 | 0.0735 | 0.134 |
| HCC-44 | 0.169 | 0.149 | 0.105 | 0.145 | 0.599 | 0.611 | 0.69 | 0.566 | 0.534 | 1.15 | 1.09 | 1.02 | 1.16 | 1.06 | 1.06 | 1.16 | 1.08 | 1.05 | 0.956 |
| BEN | 0.278 | 0.249 | 0.301 | 0.27 | 0.467 | 0.629 | 0.657 | 0.552 | 0.484 | 0.567 | 0.558 | 0.652 | 0.58 | 0.552 | 0.813 | 1.12 | 1.1 | 1 | 0.853 |
| H3255 | 0.392 | 0.326 | 0.34 | 0.353 | – | 0.539 | 0.422 | 0.38 | 0.0897 | – | 0.793 | 0.77 | 0.535 | 0.23 | – | 0.62 | 0.656 | 0.63 | 0.214 |
| NCI-H1650 | 0.461 | 0.492 | 0.342 | 0.394 | 0.661 | 0.611 | 0.55 | 0.579 | 0.478 | 0.529 | 0.639 | 0.578 | 0.648 | 0.483 | 0.618 | 0.654 | 0.611 | 0.642 | 0.39 |
